Like-named read-outs stand apart in the source and are kept apart here. Numbered stars: 1 amine (or outer) side, 2 acyl side, 3 side chain; on linkers, the order of the positions; unused ones are H or OH. Bridge positions count the residues as written; N and C are the ends. Square brackets hold non-standard residues; d marks the D form. Peptide text beside a SMILES is read from it. X1 = C=C(N[*:2])c1nc(-c2nc(-c3nc(C(=O)OC)cs3)ccc2C(=O)[*:1])cs1; NMePhe(4-NO2) = CN[C@@H](Cc1ccc([N+](=O)[O-])cc1)C(=O)O; Tic(7-OH) = O=C(O)[C@@H]1Cc2ccc(O)cc2CN1; Aad = N[C@@H](CCCC(=O)O)C(=O)O; NMeA = CN[C@@H](C)C(=O)O; Dhb = C/C=C(\N)C(=O)O; Dha = C=C(N)C(=O)O; Sar = CNCC(=O)O
Tests used:
[1] = human serum (0.33 volumes; Cosmo Bio) added to thiopeptide and internal standard in TBS; conditions: 37 °C, up to various timepoints, time axis of Fig. 5c runs to 30 h
[2] = tested on: agarose-immobilized TPCK-treated trypsin (Thermo Fisher); assay: agarose-immobilized TPCK-treated trypsin in digestion buffer [50 mM tris, 100 mM NaCl, 10 mM EDTA, pH 7.9]; conditions: 22 °C, up to 6 h
trypsin = tested on: T1, trypsin; assay: Stability to agarose-immobilized trypsin (LC/MS); format: in vitro ADME; conditions: isolated enzyme trypsin, pH 7.9
T1 construct: purchased Thermo Fisher
Protocol: 2.10. Thiopeptide metabolic stability experiments
Stability to trypsin. To a solution of the analyte thiopeptide (15 µM) and the internal standard peptide (5 µM NH2-PEG5-wstndwdtnd-PEG5-CONH2;ref 16 lower case encoding is for D-amino acids; synthesized using the standard Fmoc SPPS techniques) in digestion buffer [50 mM tris, 100 mM NaCl, 10 mM EDTA, pH 7.9] was added agarose -immobilized TPCK-treated trypsin (Thermo Fisher; 1 µL of resin slurry; 100 µL final reaction volume ) that was previously washed with digestion buffer thrice. The mixture was agitated at 22 °C, and at various timepoints (0.5, 1, 2, 4, and 6 h) aliquots were withdrawn and quenched with 14 volumes of water/acetonitrile mixture [30: 70 (v/v) water: acetonitr ile with 0.1% (v/v) TFA]. […]

[3] = Stability to glutathione (LC/MS)
Protocol: (§5) Stability to glutathione. To a freshly prepared solution of glutathione (5 mM) in stability
(§6) buffer [50 mM HEPES (pH 7.5), 100 mM NaCl] was added a solution of analyte (1.5 mM
(§7) thiopeptide in DMSO; f. c.: 10 µM). The contents were mixed and transferred to a 37 °C
(§8) thermostat. At various time points (0.5, 1, 2, 4, 6, and 10 h) aliquots were withdrawn and
(§9) quenched with 2 volumes of methanol containing 30 mM iodoacetamide. The samples were
(§10) analyzed by LC/MS (0.3 µL; section 2.6) using method 3. Areas under the peak curve for all
(§11) thiopeptide-derived products in the sample (TIC chromatograms) were used to calculate
(§12) fractions of intact analyte. Thiopeptide half-life values were obtained from non-linear
(§13) regression (scipy)15 of experimentally measured values to the pseudo-first order
(§14) approximation for the reaction kinetics which can be used since [glutathione] >> [analyte].

[4] = tested on: HCT116 colon carcinoma cells; assay: Cell viability assay (Cell Counting Kit-8); conditions: for cytotoxicity (cell viability) after 24 h incubation: thiopeptide acetate salts
Protocol: HCT116 cells were cultured in McCoy's 5A (Modified) Medium supplemented with 1% (v/v)
penicillin-streptomycin and 10% (v/v) fetal bovine serum (all from Thermo Fisher) in a
All assays were conducted using thiopeptide acetate salts prepared as follows. Strong
anion resin (AG® 1–X8 acetate form, analytical grade, quaternary ammonium 10~50 mg)
was first washed three times with 1.6 N acetic acid and three times with 0.16 N acetic acid.
Then, a thiopeptide solution ( 0.5~3 mg, dissolved in water/ acetonitrile [1:1, v/v; ~1 ml]) was
added to the resin. After 2 h on a rotary shaker, the peptide-resin suspension was ﬁltered
and the liquid phase was recovered. The resin was washed twice with water/acetonitrile (1:1,
v/v; 0.5 ml/wash), and the solutions were combined.
Cell viability assays. HCT116 cells were grown to 40–50% confluency in 96-well plates
that the final DMSO concentration is 1% (v/v) for every sample. In the first experiment (Fig.
S44a), the cells were grown for 24 h, and the incubation time was further extended to 48 h
In both cases, the cell viability was
directly assayed with Cell Counting Kit-8 (Dojindo) following the manufacturer’s instructions
allowing 4 h to develop the signal. Absorbance at 450 nm was measured on a Tecan M1000
PRO microplate reader (Tecan Group), and live cell counts were normalized to the DMSO
control. All experiments were performed in triplicate, and in most cases, replicated at least
once to analogous outcomes.

[5] = Serum stability assay (LC/MS against internal standard); conditions: human, human serum diluted in TBS, pH 7.6
TNIK [6] = target: T2, TNIK (Homo sapiens, UniProt Q9UKE5); assay: Surface plasmon resonance, binding of thiopeptides to immobilized biotinylated TNIK (single-cycle, then multicycle kinetics); parameters: Biotinylated TNIK (kinase domain, amino acids 1-314;); biotin (biotinylated protein); purchased Carna Biosciences (Kobe, Japan)
Protocol: 2.8. Surface plasmon resonance
In the initial experiment, binding affinities between the thiopeptides and TNIK were measured with a Biacore T200 instrument (GE Healthcare) at 25 °C. The assay buffer contained 50 mM Tris (pH 7.5), 150 mM NaCl, 10 mM MgCl2, 0.01% (v/v) tween-20 and 0.1% (v/v) DMSO. For wTP3, the assay buffer additionally contained ATP (f.c.: 1 mM).
Biotinylated TNIK was immobilized on a Biacore CAP chip (GE Healthcare) to a surface density of 950-1200 response units following the standard immobilization protocols provided by the manufacturer. The interaction sensorgrams were measured as single-cycle kinetics performed with five concentrations of the ligand sequentially flown over the chip at a flow rate of 15 μL/min allowing for 20 or 30 s association and 70 or 60 s for dissociation between the steps. The final dissociation step was allowed to proceed for 180 s. […]
was repeated in triplicate on a Biacore 8K instrument (GE Healthcare) using a multi cycle kinetics format. The experimental details were as above, except ATP was not added to the buffer for wTP3. Kinetic parameters and affinities of the interaction were determined assuming the standard 1:1 binding model using the Biacore software (GE Healthcare).
Reported KD values were calculated from the average measured association and dissociation rates (Table S5).
Target sequence in this assay (Q9UKE5 1-314): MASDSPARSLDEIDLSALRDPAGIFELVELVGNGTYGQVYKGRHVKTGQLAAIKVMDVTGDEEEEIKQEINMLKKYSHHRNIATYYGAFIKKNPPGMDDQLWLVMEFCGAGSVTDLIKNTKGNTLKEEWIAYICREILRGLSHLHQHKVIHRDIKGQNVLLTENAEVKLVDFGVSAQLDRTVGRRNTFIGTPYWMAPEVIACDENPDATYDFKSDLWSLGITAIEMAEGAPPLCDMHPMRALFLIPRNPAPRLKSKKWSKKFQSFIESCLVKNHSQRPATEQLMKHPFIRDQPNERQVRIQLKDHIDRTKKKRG

TNIK [7] = target: T2, TNIK; assay: ADP-Glo kinase inhibition assay; format: biochemical; parameters: Biotinylated TNIK (kinase domain, amino acids 1-314;); biotin (biotinylated protein); purchased Carna Biosciences (Kobe, Japan); conditions: 0.5 nM TNIK, 25 µM ATP, 15 µM MSTtide, 4-parameter logistic fit; for IC50: read-out: ADP-Glo IC50 against TNIK
Protocol: (§1) 2.9. Kinase inhibition assays with ADP-Glo
The ADP-Glo assay system was purchased from Promega. The kinase reaction buffer contained 50 mM Tris (pH 7.5), 10 mM MgCl2 and 0.01% (v/v) triton X-100. TNIK (1.25 nM) was incubated with various concentrations of analyte inhibitors in kinase reaction buffer at 25 °C for 10 min. After, the reactions were initiated by the addition of ATP and substrate […]
peptide (MSTtide, sequence: NH2-NKGYNTLRRKK-CONH2;ref 14 synthesized using the standard Fmoc SPPS techniques). The final mixtures containing 0.5 nM TNIK, 25 µM ATP, 15 µM MSTtide and variable concentration of the inhibitors were incubated at 25 °C for 30 min. The reactions were stopped by the addition of ADP -Glo reagent (1 volume), and the luminescent signal was developed following the manufacturer’s instructions. Luminesce was recorded on a Tecan M1000 PRO microplate reader (Tecan Group) with 1 s acquisition time and no signal attenuation. TNIK kinase activity was normalized to a no inhibitor control, and […]
values to the standard 4-parameter logistic curve model. […]
Target sequence in this assay (Q9UKE5 1-314): as above

TNIK [8] = target: T2, TNIK; assay: Kinase selectivity profiling (STE-1 kit, ADP-Glo readout): TNIK; format: biochemical; conditions: 10 μM thiopeptide
Protocol: as §1
(§2) The ADP-Glo assay system was purchased from Promega. The kinase reaction buffer contained 50 mM Tris (pH 7.5), 10 mM MgCl2 and 0.01% (v/v) triton X-100. […]
(§3) The reactions were stopped by the addition of ADP -Glo reagent (1 volume), and the luminescent signal was developed following the manufacturer’s instructions. […]
(§4) Kinase selectivity profiling. A STE-1 kinase selectivity profiling kit from Promega was utilized to assay the compounds. The experiment was conducted following the manufacturer’s instructions, and the signal was developed using the ADP-Glo assay system as described above. All measurements were performed in triplicate. After background correction, the kinase activities were normalized to a no inhibitor control , and percent remaining activity values were calculated accordingly. […]
Target sequence in this assay (Q9UKE5 whole entry, the tested form may be a part): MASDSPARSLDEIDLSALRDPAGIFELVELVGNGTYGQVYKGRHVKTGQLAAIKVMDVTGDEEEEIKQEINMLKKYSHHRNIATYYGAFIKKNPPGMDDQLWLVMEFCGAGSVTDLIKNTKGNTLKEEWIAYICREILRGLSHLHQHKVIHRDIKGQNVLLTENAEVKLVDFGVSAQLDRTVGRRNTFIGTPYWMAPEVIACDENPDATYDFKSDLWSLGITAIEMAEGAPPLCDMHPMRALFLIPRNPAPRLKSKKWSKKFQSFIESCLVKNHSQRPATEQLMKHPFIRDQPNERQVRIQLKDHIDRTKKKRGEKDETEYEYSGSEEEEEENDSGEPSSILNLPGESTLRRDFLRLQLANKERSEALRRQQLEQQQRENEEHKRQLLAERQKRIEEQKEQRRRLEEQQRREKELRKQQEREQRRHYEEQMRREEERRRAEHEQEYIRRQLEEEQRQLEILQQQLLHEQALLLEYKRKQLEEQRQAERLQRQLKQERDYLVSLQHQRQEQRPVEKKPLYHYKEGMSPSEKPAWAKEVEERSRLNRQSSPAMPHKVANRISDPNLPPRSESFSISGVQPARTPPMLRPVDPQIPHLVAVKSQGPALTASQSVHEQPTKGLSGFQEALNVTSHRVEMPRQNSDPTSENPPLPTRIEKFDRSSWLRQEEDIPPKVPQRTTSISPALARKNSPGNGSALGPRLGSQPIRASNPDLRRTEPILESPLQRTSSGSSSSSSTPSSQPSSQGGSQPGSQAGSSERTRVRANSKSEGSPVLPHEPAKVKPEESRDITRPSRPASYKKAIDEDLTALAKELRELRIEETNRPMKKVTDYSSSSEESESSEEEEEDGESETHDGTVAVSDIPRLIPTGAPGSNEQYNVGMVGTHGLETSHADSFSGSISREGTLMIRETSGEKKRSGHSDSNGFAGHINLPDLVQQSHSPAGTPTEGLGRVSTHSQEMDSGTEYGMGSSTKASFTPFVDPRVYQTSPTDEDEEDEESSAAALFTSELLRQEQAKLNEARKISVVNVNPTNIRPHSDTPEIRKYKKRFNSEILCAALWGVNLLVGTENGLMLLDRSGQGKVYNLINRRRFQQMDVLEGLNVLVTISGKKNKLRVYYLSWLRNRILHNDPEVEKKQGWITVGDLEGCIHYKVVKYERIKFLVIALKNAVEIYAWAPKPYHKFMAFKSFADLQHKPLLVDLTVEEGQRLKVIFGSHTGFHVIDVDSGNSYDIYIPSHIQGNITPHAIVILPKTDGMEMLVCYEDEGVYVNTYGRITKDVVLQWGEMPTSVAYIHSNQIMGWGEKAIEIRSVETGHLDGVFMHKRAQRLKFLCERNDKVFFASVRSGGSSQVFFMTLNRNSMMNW

in vitro = conditions: buffer or solvent, pH 7.5
Protocol: as §5, §6, §7, §8, §9, §10, §11, §12, §13, §14

MINK = MINK (Homo sapiens, UniProt Q8N4C8); assay: Kinase selectivity profiling (STE-1 kit, ADP-Glo readout): MINK; format: biochemical; conditions: 1 μM thiopeptide
Protocol: as §1, §2, §3, §4

[9] = SPR kinetic data, binding to immobilized TNIK
[10] = SPR kinetic data, binding to immobilized TNIK, read-out: KD
[11] = average from three multicycle kinetic experiments, 1:1 binding model, 25 °C

Sequence of MINK (Q8N4C8 whole entry): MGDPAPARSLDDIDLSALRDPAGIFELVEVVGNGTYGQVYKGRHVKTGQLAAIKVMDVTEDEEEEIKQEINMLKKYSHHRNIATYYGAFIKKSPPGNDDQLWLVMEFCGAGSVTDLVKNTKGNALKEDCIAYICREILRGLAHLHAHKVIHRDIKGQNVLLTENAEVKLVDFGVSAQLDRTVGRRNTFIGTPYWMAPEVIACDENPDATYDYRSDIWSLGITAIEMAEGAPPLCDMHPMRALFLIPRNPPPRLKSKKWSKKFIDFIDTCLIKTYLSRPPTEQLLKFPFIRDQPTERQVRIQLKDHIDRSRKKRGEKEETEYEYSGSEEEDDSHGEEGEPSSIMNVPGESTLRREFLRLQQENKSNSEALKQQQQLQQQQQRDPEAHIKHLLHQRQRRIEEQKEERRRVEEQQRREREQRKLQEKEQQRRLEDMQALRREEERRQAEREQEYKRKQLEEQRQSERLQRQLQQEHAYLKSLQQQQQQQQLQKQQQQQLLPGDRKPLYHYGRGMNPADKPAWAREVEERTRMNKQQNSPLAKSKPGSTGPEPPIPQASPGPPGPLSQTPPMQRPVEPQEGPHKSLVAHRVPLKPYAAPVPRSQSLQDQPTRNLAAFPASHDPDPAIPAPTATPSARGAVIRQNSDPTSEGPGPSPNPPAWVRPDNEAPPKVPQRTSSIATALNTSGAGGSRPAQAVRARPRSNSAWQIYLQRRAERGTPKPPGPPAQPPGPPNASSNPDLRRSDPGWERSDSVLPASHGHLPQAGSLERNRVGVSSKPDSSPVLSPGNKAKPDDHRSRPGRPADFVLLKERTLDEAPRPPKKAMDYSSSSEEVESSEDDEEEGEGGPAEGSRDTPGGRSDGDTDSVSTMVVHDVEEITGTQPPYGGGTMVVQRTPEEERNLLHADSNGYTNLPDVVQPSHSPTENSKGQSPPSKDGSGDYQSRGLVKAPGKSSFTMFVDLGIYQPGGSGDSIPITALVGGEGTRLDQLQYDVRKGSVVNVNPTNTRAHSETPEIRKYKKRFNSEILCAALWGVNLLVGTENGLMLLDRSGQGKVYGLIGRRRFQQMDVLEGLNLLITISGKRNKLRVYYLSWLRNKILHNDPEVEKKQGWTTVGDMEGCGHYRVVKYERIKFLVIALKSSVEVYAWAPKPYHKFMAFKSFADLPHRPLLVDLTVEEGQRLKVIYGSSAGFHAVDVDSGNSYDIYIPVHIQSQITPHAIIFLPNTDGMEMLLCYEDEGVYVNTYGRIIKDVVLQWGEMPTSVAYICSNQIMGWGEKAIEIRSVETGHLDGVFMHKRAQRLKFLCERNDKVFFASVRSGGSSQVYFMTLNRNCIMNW

Row | half-life at 15 µM (trypsin) [h] | koff (TNIK [6]; [9]) [s⁻¹] | kon (TNIK [6]; [9]) [M⁻¹ s⁻¹] | Kd (TNIK [6]; [10]) [nM] | KD (binding affinity to TNIK) (TNIK [6]; [11]) | ADP-Glo IC50 against TNIK (TNIK [7]) | Compound | fragment found [1] | half-life at 10 µM (in vitro) [h] | IC50 (TNIK [7]) [nM] | also measured
1 |  |  |  |  |  |  | WSCNgSSgfyTA | demethylated but otherwise undigested thiopeptides |  |  | not cleaved [2]: did not degrade (6 h); completely stable; τ1/2 >100 h
2 |  |  |  |  |  |  | WLRTgRaSTfTG | demethylated but otherwise undigested thiopeptides |  |  | 
3 | > 100 | 0.00579 | 1.37e+06 | 4.2 | single-digit | no measurable binding/inhibition | C=C1NC(=O)[C@H](Cc2ccc([N+](=O)[O-])cc2)N(C)C(=O)[C@H]([C@@H](C)O)NC(=O)C(=C)NC(=O)C(=C)NC(=O)[C@@H]2Cc3ccc(O)cc3CN2C(=O)CN(C)C(=O)C(=C)NC(=O)CN(C)C(=O)[C@H](CCCC(N)=O)NC(=O)[C@H](Cc2c[nH]c3ccccc23)NC(=O)[C@H](Cc2c[nH]c3ccccc23)NC(=O)c2ccc(-c3nc(C(=O)OC)cs3)nc2-c2csc(n2)C(=C)NC(=O)CNC1=O [wTP3] (WW[Aad](NH2)[Sar][Dha][Sar][Tic(7-OH)][Dha][Dha]T[NMePhe(4-NO2)][Dha]G; linker N-C via X1) |  |  |  | half-life at 10 µM ([3]; 5 mM glutathione in HEPES buffer, pH 7.5): 20.6 ± 2 h; metabolic stability, τ1/2, glutathione ([3]; 5 mM glutathione, pH 7.5, 37 °C): 20.6 h; cytotoxicity (cell viability) after 24 h incubation ([4]; 8 μM): inactive; half-life at 10 µM [5]: 17.2 ± 1.1 h
4 | 1.4 ± 0.1 | 0.0216 | 4.78e+06 | 4.5 | single-digit | sub-μM | C=C1NC(=O)[C@H](CC(C)C)NC(=O)[C@H](CC(N)=O)NC(=O)[C@H](CO)NC(=O)[C@H](CCCNC(=N)N)NC(=O)[C@H](CCCNC(=N)N)NC(=O)CN(C)C(=O)[C@H](C)N(C)C(=O)[C@H](CC(C)C)NC(=O)[C@H](CCCNC(=N)N)NC(=O)[C@@H]2CCCN2C(=O)[C@@H]2Cc3ccc(O)cc3CN2C(=O)[C@H]([C@@H](C)O)NC(=O)[C@H](Cc2c[nH]c3ccccc23)NC(=O)c2ccc(-c3nc(C(=O)OC)cs3)nc2-c2csc1n2 [hTP15] (WT[Tic(7-OH)]PRL[NMeA][Sar]RRSNL; linker N-C via X1) |  | 101 ± 7 | 150 ± 10 | inhibition of MINK (MINK): 60%

Row | Compound | half-life at 15 µM (trypsin) [h] | koff (TNIK [6]; [9]) [s⁻¹] | kon (TNIK [6]; [9]) [M⁻¹ s⁻¹] | Kd (TNIK [6]; [10]) [nM] | KD (binding affinity to TNIK) (TNIK [6]; [11]) | ADP-Glo IC50 against TNIK (TNIK [7]) | fragment found [1] | half-life at 10 µM (in vitro) [h] | IC50 (TNIK [7]) [nM] | also measured
5 | C=C1NC(=O)[C@H](C)N(C)C(=O)[C@H](CCCNC(=N)N)NC(=O)CN(C)C(=O)/C(=C/C)NC(=O)[C@H](CCCNC(=N)N)NC(=O)[C@H](CC(C)C)NC(=O)[C@H](Cc2c[nH]c3ccccc23)NC(=O)[C@H](Cc2c[nH]c3ccccc23)NC(=O)c2ccc(-c3nc(C(=O)OC)cs3)nc2-c2csc(n2)C(=C)NC(=O)CNC(=O)/C(=C/C)NC(=O)[C@H](Cc2ccc([N+](=O)[O-])cc2)N(C)C(=O)[C@H]([C@@H](C)O)NC1=O [hTP8] (WWLR[Dhb][Sar]R[NMeA][Dha]T[NMePhe(4-NO2)][Dhb]G; linker N-C via X1) | 4.9 ± 0.6 | 0.00256 | 1.21e+06 |  | single-digit |  |  | 6.4 ± 0.1 | 1180 ± 160 | suppression of TNIK activity (TNIK [8]): 94%; cytotoxicity (cell viability) after 24 h incubation ([4]; 10 μM): more cytotoxic than a small molecule control, NCB0846; concentrations at which strongly cytotoxic ([4]; dose-dependent assay): above 5 µM; IC50 ([4]; read-out: IC50, cell viability, dose-dependent 48 h incubation): 7200 nM; Kd (TNIK [6]; average from three multicycle kinetic experiments, 1:1 binding model, 25 °C, read-out: KD (binding affinity to TNIK)): 2.1 nM

Reference: article PMC10979747 (Journal of the American Chemical Society, 2024)
